# Source: publication PMC12560828, “Chemical structure drives developmental toxicity of alkyl-substituted naphthalenes in zebrafish” (Environment international, 2025)
# Legend:
# [1] = Body burden measurement (GC-MS/MS) and concentration uptake ratio, vial exposure; assay type: in vivo, Danio rerio; conditions: zebrafish (Danio rerio), whole embryos (32 pooled, ethyl acetate extract), other: waterborne exposure of embryos in sealed vials, 20 μM exposure, 32 pooled embryos, 0.5 mL extract, single replicates, read-out: measured concentration in embryo extract
# Description: Body burden was measured for exposure to five chemicals at two timepoints: 24 and 48 hpf. […] The exposure concentration was chosen as it was the maximum possible concentration that ensured enough viable animals for collection at 48 hpf and allowed direct comparison of chemical uptake at the same exposure concentration.
# Chemicals were exposed at 20 μM following the exposure procedure detailed in section 1.3, 24 vials per chemical. At 24 hpf, embryos were pooled in groups of 32 embryos (combining embryos from 4 vials) into 1.5 mL polypropylene RINO-safe lock tubes (n = 3 per chemical treatment, n = 3 per control). Tubes were briefly placed on ice to reduce embryo movement (<1 min); the remaining medium was removed; the tube was then flash frozen in liquid nitrogen and stored at −20 °C until extraction. Embryos in the remaining vials were plated as previously described in section 1.3 until collection at 48 hpf following the same procedure as 24 hpf collections (n = 3 per chemical treatment, n = 1 control).
# Tissue extraction was performed as previously reported ([Rude et al., 2025]). Each sample was spiked with 25 μL internal standard in ethyl acetate and 100 μL of 1 mm glass beads (Next Advance, Troy, NY United States) were added to the RINO-safe lock tubes containing thawed tissue samples and left on ice for 10 min 250 mg of Na2SO4 and 200 μL of ethyl acetate were added to each tube and vortexed. Tubes were homogenized at speed 8 for 6 min in a Bullet Blender (Next Advance, Troy, NY, United States). 300 μL of ethyl acetate was added to each tube and the homogenization step was repeated until no pieces of non-homogenized fish tissue remained. Samples were then centrifuged for 10 min at 4 °C, 1600g. Sample supernatant (0.5 mL) was collected into amber vials and stored at 4 °C until chemical analysis.
# Samples were analyzed for quantitation and identification of 161 PAHs. The method was performed with an Agilent 7890 gas chromatograph (GC), with a 7000C triple quadrupole mass spectrometer (MS/MS) using an Agilent J&W PAH select (30 m × 250 μm × 0.15 μm GC column). Calibration for each analyte utilized at least a 4-point (range: 4–7, median 6 points, n = 161) curve with R^2 ≥ 0.99. Specific instrument conditions were modified from [Anderson et al. (2015)] and are detailed in Table S3. GC–MS/MS data was analyzed using MassHunter Quantitative Analysis v.B.06.00 SP1 build 6.0.388.1 software (Agilent Corp. Wilmington,DE) ([Anderson et al., 2015]). Dynamic muti-reaction monitoring mode was used during analyses, and all PAHs were identified using analytical standards obtained from multiple sources (Table S1). Collison energies were optimized for each individual unsubstituted PAH, alkylation series (C1, C2, etc.), and when possible, specific alkylation group (i.e. methyl, ethyl, etc.).
# Body burden concentrations based on average embryo wet weight at each timepoint were determined by the equation below. Total measured chemical was calculated from ng/mL concentrations times sample volume (0.5 mL). Bodyburdennmol/mgbw=total measured chemicalnmol/number of fish32×average body weightmg
# Average body weights at 24 hpf and 48 hpf were assumed to be 0.31 mg and 0.26 mg, respectively as determined previously ([Rericha et al., 2024]). Statistical analysis to compare time points within chemicals was performed using a two-sided Student’s t-test (p-value ≤ 0.05). An ANOVA with a follow-up Dunn’s test was used to compare body burden between chemicals at 24 hpf (p-value ≤ 0.05). Body burden concentrations at 24 hpf were compared to the estimated percent effect of each measured chemical at the exposure concentration used for body burden analysis (20 μM). These estimates were made using the fitted concentration-response curves previously described in section 2.3.2.2.
# Concentration uptake ratios between vial exposures and 96-well plate exposures were compared using a two-sided Student’s t-test, p-values ≤ 0.05 were considered significant. […]
# [2] = tested on: early life stage zebrafish (Danio rerio) embryos; assay: Developmental toxicity morphology screen, sealed rotating vial exposure; assay type: in vivo; set-up: bmd, MO24 / bmd, MORT / bmd, ANY_ / bmd, AXIS / bmd, CRAN / bmd, EDEM / bmd, LTRK / bmd, MUSC / bmdL, ANY_ / bmdU, ANY_ / bmdL, AXIS / bmdU, AXIS / bmdL, CRAN / bmdU, CRAN / bmdL, EDEM / bmdU, EDEM / bmdL, LTRK / bmdU, LTRK / bmdL, MO24 / bmdU, MO24 / bmdL, MORT / bmdU, MORT: unit not given here; conditions: for BMC50 Any effect: Fig. 2 heatmap, exposure 6-24 hpf in vials, summary of all endpoints; for any effect BMD50: SI-T5; for estimated percent Any effect: at 20 μM, 120 hpf, estimated from fitted concentration-response curves
# Method in brief: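 Bleached 6 hpf embryos, eight per sealed glass vial in 2 mL EM, were dosed from a 200x DMSO stock and rotated end-over-end overnight at 28 °C, then moved to chemical-free EM at 24 hpf (32 embryos per treatment). Blinded binary scoring at 120 hpf was pooled as "Any effect". BMC50 is on nominal concentrations.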
# [3] = benchmark dose, morphology endpoint ANY_ (any effect)
# [4] = benchmark dose, morphology endpoint AXIS
# [5] = benchmark dose, morphology endpoint CRAN
structure (smiles),measurement,setting,value
"Cc1ccc2cccc(C)c2c1 [1,7-dimethylnaphthalene]","concentration at 24 hpf, 20 μM",[1],34600 ng/mL
same,"concentration at 48 hpf, 20 μM",[1],11300 ng/mL
same,BMC50 AXIS (curved or bent body axis at 120 hpf),"[2]; Fig. 2, nominal concentration",23.9 µM
same,BMC50 LTRK (lower trunk and/or caudal fin at 120 hpf),"[2]; Fig. 2, nominal concentration",30 µM
same,BMC50 MORT (mortality at 120 hpf),"[2]; Fig. 2, nominal concentration",not associated with mortality
same,BMC50 MUSC (muscular/cardiovascular at 120 hpf),"[2]; Fig. 2, nominal concentration",45.7 µM
same,BMC50 Any effect,[2]; nominal concentration,20.1 µM
same,any effect BMD50,[2],20.09 µM
same,estimated percent Any effect,[2],52%
same,"bmd, ANY_",[2]; [3],20.0865
same,"bmd, AXIS",[2]; [4],23.9279
same,"bmd, LTRK","[2]; benchmark dose, morphology endpoint LTRK",29.9891
same,"bmd, MUSC","[2]; benchmark dose, morphology endpoint MUSC",45.7133
"Cc1ccc2ccc(C)cc2c1 [2,7-dimethylnaphthalene]","concentration at 24 hpf, 20 μM",[1],26500 ng/mL
same,"concentration at 48 hpf, 20 μM",[1],8890 ng/mL
same,estimated percent Any effect,[2],12%
"Cc1cccc2c(C)cccc12 [1,5-dimethylnaphthalene]","concentration at 24 hpf, 20 μM",[1],29200 ng/mL
same,"concentration at 48 hpf, 20 μM",[1],9160 ng/mL
same,BMC50 AXIS (curved or bent body axis at 120 hpf),"[2]; Fig. 2, nominal concentration",47.6 µM
same,BMC50 CRAN (craniofacial malformation at 120 hpf),"[2]; Fig. 2, nominal concentration",48.3 µM
same,BMC50 EDEM (pericardial and/or yolk sac edema at 120 hpf),"[2]; Fig. 2, nominal concentration",47.8 µM
same,BMC50 MO24 (mortality at 24 hpf),"[2]; Fig. 2, nominal concentration",no MO24 BMC50
same,BMC50 Any effect,[2]; nominal concentration,36.9 µM
same,any effect BMD50,[2],36.95 µM
same,estimated percent Any effect,[2],13%
same,"bmd, ANY_",[2]; [3],36.9476
same,"bmd, AXIS",[2]; [4],47.5678
same,"bmd, CRAN",[2]; [5],48.2521
same,"bmd, EDEM","[2]; benchmark dose, morphology endpoint EDEM",47.802
CCc1ccc2ccccc2c1 [2-ethylnaphthalene],BMC50 AXIS (curved or bent body axis at 120 hpf),"[2]; Fig. 2, nominal concentration",44.9 µM
same,BMC50 CRAN (craniofacial malformation at 120 hpf),"[2]; Fig. 2, nominal concentration",45.7 µM
same,BMC50 EDEM (pericardial and/or yolk sac edema at 120 hpf),"[2]; Fig. 2, nominal concentration",42.3 µM
same,BMC50 LTRK (lower trunk and/or caudal fin at 120 hpf),"[2]; Fig. 2, nominal concentration",49.8 µM
same,BMC50 MO24 (mortality at 24 hpf),"[2]; Fig. 2, nominal concentration",47.1 µM
same,BMC50 MORT (mortality at 120 hpf),"[2]; Fig. 2, nominal concentration",44.6 µM
same,BMC50 Any effect,[2]; nominal concentration,35.2 µM
same,any effect BMD50,[2],35.16 µM
same,"bmd, MO24","[2]; endpoint MO24, benchmark dose",47.121
same,"bmdL, MO24","[2]; endpoint MO24, lower limit of benchmark dose",45.5775
same,"bmdU, MO24","[2]; endpoint MO24, upper limit of benchmark dose",48.8332
same,"bmd, MORT","[2]; endpoint MORT, benchmark dose",44.5979
same,"bmdL, MORT","[2]; endpoint MORT, lower limit of benchmark dose",42.8494
same,"bmdU, MORT","[2]; endpoint MORT, upper limit of benchmark dose",46.3328
same,"bmd, ANY_","[2]; morphology endpoint ANY_, benchmark dose",35.1578
same,"bmdL, ANY_","[2]; morphology endpoint ANY_, lower limit of benchmark dose",33.394
same,"bmdU, ANY_","[2]; morphology endpoint ANY_, upper limit of benchmark dose",36.9258
same,"bmd, AXIS","[2]; morphology endpoint AXIS, benchmark dose",44.9036
same,"bmdL, AXIS","[2]; morphology endpoint AXIS, lower limit of benchmark dose",41.901
same,"bmdU, AXIS","[2]; morphology endpoint AXIS, upper limit of benchmark dose",49.465
same,"bmd, CRAN","[2]; morphology endpoint CRAN, benchmark dose",45.7058
same,"bmdL, CRAN","[2]; morphology endpoint CRAN, lower limit of benchmark dose",42.7078
same,"bmdU, CRAN","[2]; morphology endpoint CRAN, upper limit of benchmark dose",50.351
same,"bmd, EDEM","[2]; morphology endpoint EDEM, benchmark dose",42.2958
same,"bmdL, EDEM","[2]; morphology endpoint EDEM, lower limit of benchmark dose",39.552
same,"bmdU, EDEM","[2]; morphology endpoint EDEM, upper limit of benchmark dose",46.0615
same,"bmd, LTRK","[2]; morphology endpoint LTRK, benchmark dose",49.8262
same,"bmdL, LTRK","[2]; morphology endpoint LTRK, lower limit of benchmark dose",46.6984
same,"bmdU, LTRK","[2]; morphology endpoint LTRK, upper limit of benchmark dose",55.8128
"Cc1cc(C)c2c(C)cccc2c1 [2,4,5-trimethylnaphthalene]","concentration at 24 hpf, 20 μM",[1],9620 ng/mL
same,BMC50 AXIS (curved or bent body axis at 120 hpf),"[2]; Fig. 2, nominal concentration",24.2 µM
same,BMC50 CRAN (craniofacial malformation at 120 hpf),"[2]; Fig. 2, nominal concentration",24.8 µM
same,BMC50 MO24 (mortality at 24 hpf),"[2]; Fig. 2, nominal concentration",25.7 µM
same,BMC50 MORT (mortality at 120 hpf),"[2]; Fig. 2, nominal concentration",24.2 µM
same,BMC50 Any effect,[2]; nominal concentration,22 µM
same,any effect BMD50,[2],22.04 µM
same,"bmd, MO24","[2]; benchmark dose, endpoint MO24",25.7458
same,"bmd, MORT","[2]; benchmark dose, endpoint MORT",24.2071
same,"bmd, ANY_",[2]; [3],22.0373
same,"bmd, AXIS",[2]; [4],24.1954
same,"bmd, CRAN",[2]; [5],24.8219
